Measured values taken from patent US20240109883A1, “Anti-Tumor Compositions and Methods” (priority 2020, published 2024).

Key:
Assay type in all cases: cell-based
[1] = test system: human cytomegalovirus (HCMV); test: Antiviral activity against human cytomegalovirus (HCMV) in MRC5 cells; details: for IC50 / IC90: Human betaherpesvirus 5, 168 h, MRC5 cells, MOI 0.01 IU per cell, 7 days post infection, mCherry positive cells; for Selectivity Index: SI50: MRC5 TOX 7 d CC50 relative to HCMV IC50
Procedure: To assess their antiviral activity, some compounds were tested against human cytomegalovirus (HCMV) in vitro. Human MRC5 cells were grown to confluency (˜1.0×10^4 cells/well) in 96-well plate format in Dulbecco's Modified Eagle Medium (DMEM) supplemented with 10% fetal bovine serum (FBS) 2 mM L-glutamine, 0.1 mM non-essential amino acids, 10 mM HEPES, and 100 U/ml each of penicillin and streptomycin and infected with an HCMV variant expressing mCherry tagged pUL99 (the product of late viral UL99 gene) at a multiplicity of 0.01 infectious unit (IU) per cell. Assays were performed in triplicate. One hour later, medium of the cells was replaced with fresh medium containing the indicated compounds at 25, 12.5, 6.25, 3.13, 1.56, 0.78, 0.39 μM or the carrier in which the compounds are dissolved (DMSO). Final concentration of DMSO was 0.5% in each treatment. Virus yield in the culture was determined at 7 days post infection by quantification of fluorescent (mCherry positive) cells in each well by fluorescent microscopy. Results were plotted using CDD Vault (CDD Vault was developed by Collaborative Drug Discovery, Inc., 1633 Bayshore Hwy, Suite 342, Burlingame, CA 94010) in order to calculate IC50s and IC90s.

[2] = MRC5 TOX 7 d; details: human
[3] = test system: MCF7 cells; test: MCF7 Cell Growth Inhibition Assay; details: Homo sapiens, 24 h, 10% serum, DAPI cell count, 4-pt dilution from 10 μM
Procedure: MCF7 cells were seeded in 96-well plates at 10% confluence 24 h prior to treatment. Compound was added to cells in full growth media containing 10% serum, using a 2-fold, 4-pt dilution scheme beginning from 10 μM (10, 5, 2.5, 1.25 μM). Plates were incubated for 24 h. After treatment, cells were washed, fixed with 4% PFA and stained with DAPI. Plates were imaged using a Cytation 3 plate reader and nuclear DAPI staining was used to quantify cell number. % Growth relative to vehicle-treated (DMSO) control wells was plotted using Excel (See FIGS. 1-8). IC50s were calculated by fitting the data points to the following standard equation:
Growth=1−[Cmpd]^n/(IC50^n+[Cmpd]^n)
where [Cmpd] is the molar concentration of compound, the IC50 is the concentration where half-maximal effect is seen, and n is the Hill coefficient.

[4] = MRC5 4d Toxicity Assay; details: human, confluent MRC5 cells, DAPI cell count, read-out: MRC5 4 d Tox: CC50
Procedure: MRC5 cells were seeded in 96-well plates 1-2 days prior to treatment to ensure 100% confluence. On the day of treatment, cells were washed once and growth media was replaced. Compound (in DMSO) was added to cells using the following dilution scheme: 25, 12.5, 4.16, 1.4, 0.46, 0.15, 0.05 μM. Test concentrations were assayed in duplicate and included 0 μM (DMSO) control wells. Plates were incubated for 4 days. After treatment, cells were washed, fixed with 4% PFA and stained with DAPI. Plates were imaged using a Cytation 3 plate reader and nuclear DAPI staining was used to quantify cell survival. Dose-response plots were generated using CDD Vault to calculate CC50s.

[5] = test system: cMYC; test: cMYC Degradation Assay (MDA-MB-231 cells, western blot); details: 72 hours
Procedure: MDA-MB-231 cells were seeded in 6-well format in complete growth media containing 10% serum and incubated for 48 h to ensure 100% confluence. Compound was added to cells at 5 μM and 10 μM final concentrations for a treatment period of 72 hours. Cells were harvested in ice-cold IP buffer and lysates were cleared by centrifugation. Total protein concentration was determined for each sample by Bradford assay. Proteins were separated by 10% SDS-PAGE and blotted onto PVDF membranes. Membranes were blocked with CosmoBio PDVF blocking reagent for 1 hour, followed by overnight incubation with cMYC primary antibody (Abcam) at 4 C. After several washes, the membanes were probed with secondary antibody for 1 hour at room temperature. Fluorescent signal was acquired using an Odyssey CLx (LI-COR) and quantified using ImageJ software.

Compound | IC50 [1] [µM] | IC90 [1] [µM] | Selectivity Index: SI50 [1] | CC50 at 7 d [2] [µM] | GI50 [3] [µM] | CC50 at 4 days [4] [µM] | MDA-MB-231 cMYC: Fold Decrease in Low MW Band at 5 μM [5] [fold] | MDA-MB-231 cMYC: Fold Increase in High MW Band at 5 μM [5] [fold] | MDA-MB-231 cMYC: Fold Decrease in Low MW Band at 10 μM [5] [fold] | MDA-MB-231 cMYC: Fold Increase in High MW Band at 10 μM [5] [fold] | MDA-MB-231 cMYC qualitative degredation [5]
CCOc1ccc(Cc2cnc(N3CCc4ccc(N(C)C(N)=O)cc4C3)s2)cc1 [Example 009] | 2.04 | 7.43 | >24.4 | > 50 | – | – | – | – | – | – | –
NC(=O)Nc1ccc2c(c1)CN(c1ncc(Cc3ccc(N4CCOCC4)cc3)s1)CC2 [Example 005] | 1.43 | 2.92 | >7.3 | > 10.4 | – | – | – | – | – | – | –
CNC(=O)N(C)c1ccc2c(c1)CN(c1nnc(Cc3ccc(-n4cccn4)cc3)s1)CC2 [Example 013] | 4.27 | 9.25 | >11.7 | > 50 | – | – | – | – | – | – | –
CN(C)C(=O)N(C)c1ccc2c(c1)CN(c1ncc(Cc3ccc(-n4cccn4)cc3)s1)CC2 [Example 024] | 1.14 | 5.31 | 18.7 | 21.4 | 1.8 | > 25 | – | – | – | – | –
NC(=O)Nc1ccc2c(c1)CN(c1ncc(Cc3ccc(N4CCS(=O)(=O)CC4)cc3)s1)CC2 [Example 002] | 2.59 | 7.58 | >19.3 | > 50 | – | – | – | – | – | – | –
CN(C(N)=O)c1ccc2c(c1)CN(c1ncc(Cc3ccc(-n4cccn4)cc3)s1)CC2 [Example 020] | 1.24 | 4.7 | 2.9 | 3.63 | 2.3 | > 25 | – | – | – | – | –
CS(=O)(=O)c1ccc(Cc2cnc(N3CCc4ccc(NC(N)=O)cc4C3)s2)cc1 [Example 004] | 5.59 | > 25 | >2.8 | > 15.8 | 142 | > 25 | – | – | – | – | –
NC(=O)Nc1ccc2c(c1)CN(c1ncc(Cc3ccc(-c4ncccn4)cc3)s1)CC2 [Example 001] | 1.46 | 8.72 | >7.1 | > 10.4 | 31.7 | > 25 | 0.98 | 0.84 | 1.2 | 1.7 | no degradation
NC(=O)Nc1cnc2c(c1)CN(c1ncc(Cc3ccc(N4CCOCC4)cc3)s1)CC2 [Example 018] | 16.1 | 17.7 | >3.1 | > 50 | – | – | – | – | – | – | –
CN(C(N)=O)c1ccc2c(c1)CN(c1ncc(Cc3ccc(N4CCOCC4)cc3)s1)CC2 [Example 012] | 2.13 | > 4.24 | >23.5 | > 50 | – | – | – | – | – | – | –
NC(=O)Nc1ccc2c(c1)CN(c1ncc(Cc3ccc(-c4ccco4)cc3)s1)CC2 [Example 007] | 1.19 | > 2.89 | >2.4 | > 2.89 | – | – | 0.63 | 0.9 | 0.8 | 1.3 | no degradation
CCOc1ccc(Cc2cnc(N3CCc4ncc(NC(N)=O)cc4C3)s2)cc1 [Example 017] | 6.46 | 47.5 | 7.3 | 47.3 | – | – | – | – | – | – | –
NC(=O)Nc1cnc2c(c1)CN(c1ncc(Cc3ccc(-n4cccn4)cc3)s1)CC2 [Example 016] | 5.25 | > 6.77 | >3.0 | > 15.8 | – | – | – | – | – | – | –
CNC(=O)N(C)c1ccc2c(c1)CN(c1noc(Cc3ccc(-n4cccn4)cc3)n1)CC2 [Example 015] | 2.51 | 5.59 | 17.7 | 44.4 | – | – | – | – | – | – | –
CNC(=O)Nc1ccc2c(c1)CN(c1ncc(Cc3ccc(-n4cccn4)cc3)s1)CC2 [Example 021] | 1.17 | > 4.43 | >2.5 | > 2.89 | 18.3 | > 25 | – | – | – | – | –
CN(C(N)=O)c1ccc2c(c1)CN(c1ncc(Cc3ccc(-c4ncccn4)cc3)s1)CC2 [Example 011] | 1.48 | > 10.4 | >7.0 | > 10.4 | – | – | 0.31 | 1.53 | 0.5 | 2.6 | partial
CN1CC(Oc2ccc(Cc3cnc(N4CCc5ccc(NC(N)=O)cc5C4)s3)cc2)C1 [Example 006] | 3.37 | > 50 | 12.9 | 43.4 | – | – | – | – | – | – | –
NC(=O)Nc1ccc2c(c1)CN(c1ncc(Cc3ccc(N4CCOC4=O)cc3)s1)CC2 [Example 003] | 5.77 | > 6.77 | >1.2 | > 6.77 | 17.5 | > 25 | – | – | – | – | –
CN(C(N)=O)c1ccc2c(c1)CN(c1ncc(Cc3ccc(OCC4CC4)cc3)s1)CC2 [Example 010] | 2.44 | 7.97 | 6.9 | 16.9 | – | – | – | – | – | – | –
CN(C)C(=O)Nc1ccc2c(c1)CN(c1ncc(Cc3ccc(-n4cccn4)cc3)s1)CC2 [Example 022] | 0.536 | > 4.43 | >8.3 | > 4.43 | 18.3 | > 25 | – | – | – | – | –
